pIC50: −log10 of the molar value.
What was measured:
[1] = target: T1, VIM-2 (Escherichia coli, UniProt Q5U7L7); assay: β-Lactamase enzyme inhibition assay, VIM-2 (nitrocefin substrate); assay type: biochemical; conditions: nitrocefin substrate 100 μM, 15 min preincubation at 37° C.; read-out: IC50, Class B VIM-2
T1 construct: made in house; host or cells: E. coli BL21(DE3)
Protocol: For Vim-2 metallo β-lactamase, the procedure was identical with the following exceptions, first the protein was not pH adjusted to pH 5 with 50 mM sodium acetate, second, the chromatography step was changed to a 5 ml Q sepharose anion exchange column pre-equilibrated with 50 mM Hepes pH 7.5, and elution of the protein was achieved by a linear gradient of NaCl (0-600 mM). Finally, the VIM-2 purification required a second run (3rd step) on the Q sepharose anion exchange column to achieve acceptable purity (>90%).
An equal volume of diluted enzyme stock was added, and the plates were incubated at 37° C. for 15 min. Nitrocefin was used as substrate for p99 AmpC, VIM-2 and OXA-1 and dispensed into each well at a final concentration of 100 μM. Absorbance at 486 nm was immediately monitored for 10 min using a Biotek Powerwave XS2 microplate spectrophotometer using the GEN5 softweare package (Biotek Instruments, Winooski Vt.). In an analogous fashion, imipenem was used as substrate for Kpc-2 and Cefotaxime was used for SHV-5, while changes in absorbance upon hydrolysis of the β-lactam ring were monitored at 300 nm and 260 nm respectively in UV-transparent 96-well microtiter assay plates. Maximum rates of hydrolysis were compared to those in control wells (without inhibitors), and percentages of enzyme inhibition were calculated for each concentration of inhibitor. The concentration of inhibitor needed to reduce the initial rate of hydrolysis of substrate by 50% (IC50) was calculated as the residual activity of β-lactamase at 486 nm using GraFit version 7 kinetics software package (Erithacus Software, Surrey, UK).
Using the methodology described above, examples of the current invention were evaluated for their ability to inhibit β-lactamase enzymes from all four Ambler classifications (A through D). […] NT=Not tested.

[2] = system: K. pneumoniae 156319 expressing KPC-3; assay: Broth microdilution MIC assay, partner meropenem; assay type: cell-based; conditions: Klebsiella pneumoniae, read-out: MIC of Exemplary Compounds in presence of fixed β-lactams, Fixed Mero, K.P. 156319 KPC-3
[3] = system: K. pneumoniae A-1797 expressing KPC-2 and VIM-4; assay: Broth microdilution MIC assay, partner meropenem; assay type: cell-based; conditions: Klebsiella pneumoniae, read-out: MIC of Exemplary Compounds in presence of fixed β-lactams, Fixed Mero, K.P. A-1797 KPC-2 VIM-4
[4] = system: E. coli ESBL4 expressing CTX-M-15; assay: Broth microdilution MIC assay, partner ceftazidime;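 also: ceftazidime held fixed at 4 µg/mL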; assay type: cell-based; conditions: Escherichia coli, read-out: MIC of Exemplary Compounds in presence of fixed β-lactams, Fixed CAZ, E. coli ESBL4 CTX-M-15
[5] = system: P. aeruginosa Ps296 expressing VIM-2; assay: Broth microdilution MIC assay, partner meropenem; assay type: cell-based; conditions: Pseudomonas aeruginosa, read-out: MIC of Exemplary Compounds in presence of fixed β-lactams, Fixed Mero, P. aerug. Ps296 VIM-2
[6] = system: E. cloacae 144200 expressing Class C P99 AmpC; assay: Broth microdilution MIC assay, partner ceftazidime;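 also: ceftazidime held fixed at 4 µg/mL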; assay type: cell-based; conditions: Enterobacter cloacae, read-out: MIC of Exemplary Compounds in presence of fixed β-lactams, Fixed CAZ, E. cl. 144200 p99 AmpC
[7] = system: S. aureus MSSA-7 producing penicillinase PC-1; assay: Broth microdilution MIC assay, partner piperacillin; assay type: cell-based; conditions: Staphylococcus aureus, fixed piperacillin 4 μg/mL, read-out: MIC of Exemplary Compounds in presence of fixed β-lactams, Fixed Pip, S. aureus MSSA-7 PC-1

Row | SMILES | pIC50 [1] | MIC [2] [µg/mL] | MIC [3] [µg/mL] | MIC [4] [µg/mL] | MIC [5] [µg/mL] | MIC [6] [µg/mL] | MIC [7] [µg/mL]
1 | CN(C)Cc1ccc(C(=O)N[C@H]2Cc3cccc(C(=O)O)c3OB2O)cc1N [Example 18, (R)-3-(3-amino-4-((dimethylamino)methyl)benzamido)-2-hydroxy-3,4-dihydro-2H-benzo[e][1,2]oxaborinine-8-carboxylic acid] | 6.00 to 7.00 | < 4 | < 4 | < 4 | < 4 | < 4 | < 4
2 | CNCc1ccc(C(=O)N[C@H]2Cc3cccc(C(=O)O)c3OB2O)cc1CNC [Example 19, (R)-3-(3,4-bis((methylamino)methyl)benzamido)-2-hydroxy-3,4-dihydro-2H-benzo[e][1,2]oxaborinine-8-carboxylic acid] | > 7.00 | < 4 | < 4 | < 4 | < 4 | < 4 | < 4
3 | NCc1ccc(CC(=O)N[C@H]2Cc3cccc(C(=O)O)c3OB2O)cc1CN [Example 20, (R)-3-(2-(3,4-bis(aminomethyl)phenyl)acetamido)-2-hydroxy-3,4-dihydro-2H-benzo[e][1,2]oxaborinine-8-carboxylic acid] | > 7.00 | < 4 | < 4 | < 4 | < 4 | < 4 | < 4
4 | CN(C)Cc1ccc(C(=O)N[C@H]2Cc3cccc(C(=O)O)c3OB2O)cc1NC(=O)[C@@H](N)CN [Example 21, (R)-3-(3-((S)-2,3-diaminopropanamido)-4-((dimethylamino)methyl)benzamido)-2-hydroxy-3,4-dihydro-2H-benzo[e][1,2]oxaborinine-8-carboxylic acid] | > 7.00 | 8 to 32 | 8 to 32 | < 4 | > 32 | < 4 | 8 to 32
5 | Cc1ccc(C(=O)N[C@H]2Cc3cccc(C(=O)O)c3OB2O)cc1NC(=O)[C@@H](N)CN [Example 22, (R)-3-(3-((S)-2,3-diaminopropanamido)-4-methylbenzamido)-2-hydroxy-3,4-dihydro-2H-benzo[e][1,2]oxaborinine-8-carboxylic acid] | 6.00 to 7.00 | < 4 | 8 to 32 | < 4 | > 32 | < 4 | < 4
6 | Cc1ccc(C(=O)N[C@H]2Cc3cccc(C(=O)O)c3OB2O)cc1N [Example 23, (R)-3-(3-amino-4-methylbenzamido)-2-hydroxy-3,4-dihydro-2H-benzo[e][1,2]oxaborinine-8-carboxylic acid] | 6.00 to 7.00 | < 4 | 8 to 32 | < 4 | 8 to 32 | < 4 | < 4
7 | O=C(N[C@H]1Cc2cccc(C(=O)O)c2OB1O)c1ccc(-c2ccccn2)cc1 [Example 24, (R)-2-hydroxy-3-(4-(pyridin-2-yl)benzamido)-3,4-dihydro-2H-benzo[e][1,2]oxaborinine-8-carboxylic acid] | 6.00 to 7.00 | 8 to 32 | 8 to 32 | < 4 | 8 to 32 | < 4 | < 4
8 | N=C(N)NCc1ccc(C(=O)N[C@H]2Cc3cccc(C(=O)O)c3OB2O)cc1CNC(=N)N [Example 25, (R)-3-(3,4-bis(guanidinomethyl)benzamido)-2-hydroxy-3,4-dihydro-2H-benzo[e][1,2]oxaborinine-8-carboxylic acid] | > 7.00 | < 4 | < 4 | < 4 | < 4 | < 4 | < 4
9 | O=C(N[C@H]1Cc2cccc(C(=O)O)c2OB1O)c1ccc2[nH]ccc2c1 [Example 26, (R)-2-hydroxy-3-(1H-indole-5-carboxamido)-3,4-dihydro-2H-benzo[e][1,2]oxaborinine-8-carboxylic acid] | 6.00 to 7.00 | < 4 | 8 to 32 | < 4 | 8 to 32 | < 4 | < 4
10 | O=C(N[C@H]1Cc2cccc(C(=O)O)c2OB1O)c1ccc(-c2ccncc2)cc1 [Example 27, (R)-2-hydroxy-3-(4-(pyridin-4-yl)benzamido)-3,4-dihydro-2H-benzo[e][1,2]oxaborinine-8-carboxylic acid] | 5.00 to 6.00 | > 32 | > 32 | < 4 | > 32 | < 4 | < 4
11 | O=C(N[C@H]1Cc2cccc(C(=O)O)c2OB1O)c1ccc2ncccc2c1 [Example 28, (R)-2-hydroxy-3-(quinoline-6-carboxamido)-3,4-dihydro-2H-benzo[e][1,2]oxaborinine-8-carboxylic acid] | 5.00 to 6.00 | < 4 | 8 to 32 | < 4 | > 32 | < 4 | < 4
12 | O=C(N[C@H]1Cc2cccc(C(=O)O)c2OB1O)c1ccc2nccnc2c1 [Example 29, (R)-2-hydroxy-3-(quinoxaline-6-carboxamido)-3,4-dihydro-2H-benzo[e][1,2]oxaborinine-8-carboxylic acid] | 5.00 to 6.00 | < 4 | > 32 | < 4 | > 32 | < 4 | < 4
13 | O=C(N[C@H]1Cc2cccc(C(=O)O)c2OB1O)c1ccc2cc[nH]c2c1 [Example 30, (R)-2-hydroxy-3-(1H-indole-6-carboxamido)-3,4-dihydro-2H-benzo[e][1,2]oxaborinine-8-carboxylic acid] | 6.00 to 7.00 | < 4 | 8 to 32 | < 4 | < 4 | < 4 | < 4
14 | O=C(O)c1cccc2c1OB(O)[C@@H](NC(=O)c1cccc3cc[nH]c13)C2 [Example 31, (R)-2-hydroxy-3-(1H-indole-7-carboxamido)-3,4-dihydro-2H-benzo[e][1,2]oxaborinine-8-carboxylic acid] | 5.00 to 6.00 | < 4 | > 32 | < 4 | 8 to 32 | < 4 | < 4
15 | O=C(O)c1cccc2c1OB(O)[C@@H](NC(=O)c1cccc3[nH]ccc13)C2 [Example 32, (R)-2-Hydroxy-3-[(1H-indole-4-carbonyl)-amino]-3,4-dihydro-2H-benzo[e][1,2]oxaborinine-8-carboxylic acid] | 6.00 to 7.00 | < 4 | > 32 | < 4 | < 4 | < 4 | < 4
16 | O=C1Cc2cc(C(=O)N[C@H]3Cc4cccc(C(=O)O)c4OB3O)ccc2N1 [Example 33, (R)-2-Hydroxy-3-[(2-oxo-2,3-dihydro-1H-indole-5-carbonyl)-amino]-3,4-dihydro-2H-benzo[e][1,2]oxaborinine-8-carboxylic acid] | 6.00 to 7.00 | < 4 | 8 to 32 | < 4 | < 4 | < 4 | < 4
17 | O=C(N[C@H]1Cc2cccc(C(=O)O)c2OB1O)c1ccc2nc[nH]c2c1 [Example 34, (R)-3-[(3H-Benzoimidazole-5-carbonyl)-amino]-2-hydroxy-3,4-dihydro-2H-benzo[e][1,2]oxaborinine-8-carboxylic acid] | 6.00 to 7.00 | < 4 | 8 to 32 | < 4 | < 4 | < 4 | < 4
